Measured values: paper PMC11204923, “Marine Cytotoxin Santacruzamate A Derivatives as Potent HDAC1-3 Inhibitors and Their Synergistic Anti-Leukemia Effects with Venetoclax” (Marine Drugs, 2024)
Where “and” joins values, the source holds several entries; their conditions need not be identical. Equal entries are not always repeated.

Columns and labels:
[1] = test system: MV4-11, THP-1, HL60 and Kasumi-1 cells; test: Cell viability assay, four AML cell lines together; format: cell-based; settings: 72 h; read-out: IC50 values against four AML cell lines (range)
Experimental: (§1) The AML cell lines MV4-11, THP-1, KASUMI-1 and HL-60 were purchased from Procell Life Science & Technology Co., Ltd. (Wuhan, China). THP-1 and KASUMI-1 were cultured in RPMI-1640 complete medium containing 10% fetal bovine serum and 1% penicillin and streptomycin. MV4-11 was cultured in IMDM complete medium containing 10% fetal bovine serum and 1% penicillin and streptomycin. HL-60 was cultured in IMDM complete medium containing 20% fetal bovine serum and 1% penicillin and streptomycin. All cell lines were cultured in an incubator with humidity set at 95%, temperature at 37 °C and 5% CO2.
(§2) MV4-11, THP-1, KASUMI-1 and HL-60 cells were plated in 96-well transparent plates (10,000 to 15,000 cells/100 μL) and after incubation overnight, cells were treated with gradient-diluted inhibitors with several concentrations. After the cells were incubated with inhibitors for 72 h, 1 mg/mL of Resazurin (Sigma-Aldrich, Saint Louis, MO, USA) was added (working concentration was 0.1 mg/mL). After incubation at 37 °C for about 3 h, the fluorescence intensity of […] was measured at 560 nm/590 nm (excitation/emission) with a Spectra Max i3 Microplate Reader, and the cell viability was determined. The IC50 curve was drawn using GraphPad Prism 9.5 software.

HL-60 cells = test: Cell viability assay (resazurin), HL-60; format: cell-based; settings: Homo sapiens, HL-60, 72 h; read-out: IC50 anti-proliferative activity HL-60
Experimental: as §1, §2

HDAC1 = molecular target: T1, HDAC1 (Homo sapiens, UniProt Q13547); test: In vitro HDAC inhibition fluorescence assay, HDAC1; format: biochemical
T1 construct: purchased BPS Bioscience
T1 sequence (Q13547 whole entry): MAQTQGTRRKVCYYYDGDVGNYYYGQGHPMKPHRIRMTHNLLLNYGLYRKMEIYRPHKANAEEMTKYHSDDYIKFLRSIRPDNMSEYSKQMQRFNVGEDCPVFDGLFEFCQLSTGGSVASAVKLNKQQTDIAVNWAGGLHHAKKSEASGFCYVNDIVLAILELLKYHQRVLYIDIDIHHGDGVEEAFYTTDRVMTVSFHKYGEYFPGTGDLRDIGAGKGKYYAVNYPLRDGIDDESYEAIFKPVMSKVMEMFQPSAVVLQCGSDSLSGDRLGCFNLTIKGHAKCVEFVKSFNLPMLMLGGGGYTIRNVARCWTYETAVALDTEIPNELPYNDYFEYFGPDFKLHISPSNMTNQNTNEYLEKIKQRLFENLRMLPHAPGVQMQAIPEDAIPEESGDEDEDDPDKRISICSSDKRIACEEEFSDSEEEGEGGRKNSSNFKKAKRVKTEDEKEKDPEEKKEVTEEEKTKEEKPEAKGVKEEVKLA
Experimental: (§3) All of the HDAC enzymes were purchased from BPS Bioscience. In vitro HDAC inhibition assays were conducted as previously described. In brief, 20 μL of recombinant HDAC enzyme solution (HDAC1-9, 11) was mixed with various concentrations of the tested compound (20 μL). […] After incubation at 37 °C for 2 h, the catalysis was stopped by the addition of 10 μL of developer containing 30 mg/mL trypsin and 6 μM trichostatin A (TSA). Then, 30 min later, the fluorescence intensity was measured using a microplate reader at excitation and emission wavelengths of 360 and 460 nm, respectively. The inhibition ratios were calculated from the fluorescence intensity readings of tested wells relative to those of control wells, and the IC50 curves and values were determined by GraphPad Prism 6.0, using the “log(inhibitor) vs. normalized response-variable slope” function.

HDAC2 = molecular target: T2, HDAC2 (Homo sapiens, UniProt Q92769); test: In vitro HDAC inhibition fluorescence assay, HDAC2; format: biochemical
T2 construct: purchased BPS Bioscience
T2 sequence (Q92769 whole entry): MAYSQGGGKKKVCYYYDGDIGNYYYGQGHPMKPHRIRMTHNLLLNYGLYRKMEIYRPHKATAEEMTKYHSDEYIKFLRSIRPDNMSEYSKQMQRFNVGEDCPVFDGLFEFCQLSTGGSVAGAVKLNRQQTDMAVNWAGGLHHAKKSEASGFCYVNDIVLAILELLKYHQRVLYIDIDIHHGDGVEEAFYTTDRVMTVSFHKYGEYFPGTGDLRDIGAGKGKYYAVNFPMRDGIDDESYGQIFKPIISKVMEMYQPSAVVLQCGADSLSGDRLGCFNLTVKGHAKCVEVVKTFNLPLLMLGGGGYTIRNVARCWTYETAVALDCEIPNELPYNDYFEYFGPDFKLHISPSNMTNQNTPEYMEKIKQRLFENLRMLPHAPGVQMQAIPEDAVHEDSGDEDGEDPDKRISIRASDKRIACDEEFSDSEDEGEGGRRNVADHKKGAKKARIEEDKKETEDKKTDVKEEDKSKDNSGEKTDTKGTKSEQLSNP
Experimental: as §3

[2] = In vitro stability in artificial intestinal juice; format: in vitro ADME; settings: 37 °C, within 24 h, degradation beginning after about 8 h
Experimental: Equal samples were collected, and 600 μL acetonitrile was added to quench enzyme reactions. The reaction mixture was swirled for 30 s and then centrifuged at 15,000 rpm at 4 °C for 15 min. The supernatant of each sample was analyzed directly by HPLC (1260 Infinity II, Agilent Technologies, Waldbronn, Germany).

CCCNNC(=O)C=Cc1ccc(CNCCc2ccccc2)cc1 [Compound 25c, 3-(4-((Phenethylamino)methyl)phenyl)-N′-propylacrylohydrazide]
IC50 [1]: 338 to 480 nM | IC50 (HL-60 cells): 480 ± 177 nM | IC50 (HDAC1): 28.1 nM and 28 nM | Inhibition Rate of HDAC1 (%) (HDAC1; 10 nM, 0.01 µM): 31.1 ± 2.1% | inhibition at 0.01 µM (HDAC1; 10 nM, read-out: Inhibition Rate of HDAC1 (%)): 31.1 ± 2.09% | inhibition at 0.1 µM (HDAC1; 100 nM, read-out: Inhibition Rate of HDAC1 (%)): 83.6 ± 0.4% | IC50 (HDAC2): 135 ± 13.3 nM | degradation in artificial intestinal juice [2]: 12.52%
